The NIST ThermoML archive (doi:10.1021/je200811n)
± gives the expanded uncertainty stated by the source.

Details: Hot wire method

F/C=C/C(F)(F)F [trans-1,3,3,3-tetrafluoropropene]
thermal conductivity (293.73 K, 303 kPa, Gas): 0.01311 ± 0.00045 W/m/K
thermal conductivity (293.77 K, 95 kPa, Gas): 0.0133 ± 0.00045 W/m/K
thermal conductivity (293.85 K, 231 kPa, Gas): 0.01317 ± 0.00045 W/m/K
thermal conductivity (293.9 K, 400 kPa, Gas): 0.01318 ± 0.00045 W/m/K
thermal conductivity (294.04 K, 155 kPa, Gas): 0.01319 ± 0.00045 W/m/K
thermal conductivity (294.06 K, 345 kPa, Gas): 0.01312 ± 0.00045 W/m/K
thermal conductivity (294.27 K, 95 kPa, Gas): 0.01329 ± 0.00045 W/m/K
thermal conductivity (294.45 K, 343 kPa, Gas): 0.01318 ± 0.00045 W/m/K
thermal conductivity (301.02 K, 868 kPa, Liquid): 0.07405 ± 0.00082 W/m/K
thermal conductivity (301.09 K, 873 kPa, Liquid): 0.07375 ± 0.00082 W/m/K
thermal conductivity (301.25 K, 21041 kPa, Liquid): 0.08609 ± 0.00095 W/m/K
thermal conductivity (301.27 K, 15433 kPa, Liquid): 0.08285 ± 0.00091 W/m/K
thermal conductivity (301.28 K, 15438 kPa, Liquid): 0.08293 ± 0.001 W/m/K
thermal conductivity (301.32 K, 10268 kPa, Liquid): 0.07996 ± 0.00088 W/m/K
thermal conductivity (301.32 K, 21030 kPa, Liquid): 0.08586 ± 0.00094 W/m/K
thermal conductivity (301.33 K, 5341 kPa, Liquid): 0.07696 ± 0.00085 W/m/K
thermal conductivity (301.35 K, 15435 kPa, Liquid): 0.08267 ± 0.00092 W/m/K
thermal conductivity (301.36 K, 15436 kPa, Liquid): 0.08267 ± 0.00092 W/m/K
thermal conductivity (301.39 K, 877 kPa, Liquid): 0.07371 ± 0.00082 W/m/K
thermal conductivity (301.4 K, 10267 kPa, Liquid): 0.07978 ± 0.00088 W/m/K
thermal conductivity (301.41 K, 810 kPa, Liquid): 0.07351 ± 0.00082 W/m/K
thermal conductivity (301.41 K, 5340 kPa, Liquid): 0.07676 ± 0.00085 W/m/K
thermal conductivity (301.47 K, 877 kPa, Liquid): 0.07359 ± 0.00082 W/m/K
thermal conductivity (301.48 K, 201 kPa, Gas): 0.01405 ± 0.00048 W/m/K
thermal conductivity (301.5 K, 101 kPa, Gas): 0.01387 ± 0.00047 W/m/K
thermal conductivity (301.5 K, 812 kPa, Liquid): 0.07342 ± 0.00082 W/m/K
thermal conductivity (301.64 K, 15430 kPa, Liquid): 0.0828 ± 0.00091 W/m/K
thermal conductivity (301.69 K, 10267 kPa, Liquid): 0.07986 ± 0.00088 W/m/K
thermal conductivity (301.7 K, 201 kPa, Gas): 0.01393 ± 0.00047 W/m/K
thermal conductivity (301.71 K, 21026 kPa, Liquid): 0.08586 ± 0.00094 W/m/K
thermal conductivity (301.72 K, 5338 kPa, Liquid): 0.07673 ± 0.00085 W/m/K
thermal conductivity (301.73 K, 101 kPa, Gas): 0.01377 ± 0.00047 W/m/K
thermal conductivity (301.74 K, 15425 kPa, Liquid): 0.08254 ± 0.00091 W/m/K
thermal conductivity (301.75 K, 15438 kPa, Liquid): 0.08085 ± 0.00089 W/m/K
thermal conductivity (301.8 K, 875 kPa, Liquid): 0.07346 ± 0.00081 W/m/K
thermal conductivity (301.81 K, 10267 kPa, Liquid): 0.07952 ± 0.00088 W/m/K
thermal conductivity (301.82 K, 21035 kPa, Liquid): 0.08546 ± 0.00094 W/m/K
thermal conductivity (301.83 K, 5339 kPa, Liquid): 0.07652 ± 0.00085 W/m/K
thermal conductivity (301.9 K, 871 kPa, Liquid): 0.07331 ± 0.00081 W/m/K
thermal conductivity (301.92 K, 820 kPa, Liquid): 0.07315 ± 0.00081 W/m/K
thermal conductivity (301.95 K, 201 kPa, Gas): 0.01381 ± 0.00047 W/m/K
thermal conductivity (301.98 K, 101 kPa, Gas): 0.01368 ± 0.00046 W/m/K
thermal conductivity (302.06 K, 15424 kPa, Liquid): 0.08252 ± 0.00091 W/m/K
thermal conductivity (302.07 K, 283 kPa, Gas): 0.01426 ± 0.00048 W/m/K
thermal conductivity (302.13 K, 10265 kPa, Liquid): 0.07959 ± 0.00088 W/m/K
thermal conductivity (302.17 K, 5336 kPa, Liquid): 0.0765 ± 0.00085 W/m/K
thermal conductivity (302.2 K, 201 kPa, Gas): 0.01376 ± 0.00047 W/m/K
thermal conductivity (302.23 K, 21022 kPa, Liquid): 0.08536 ± 0.00094 W/m/K
thermal conductivity (302.24 K, 102 kPa, Gas): 0.01362 ± 0.00046 W/m/K
thermal conductivity (302.26 K, 867 kPa, Liquid): 0.07328 ± 0.00082 W/m/K
thermal conductivity (302.26 K, 10266 kPa, Liquid): 0.07933 ± 0.00088 W/m/K
thermal conductivity (302.28 K, 278 kPa, Gas): 0.01416 ± 0.00048 W/m/K
thermal conductivity (302.28 K, 835 kPa, Liquid): 0.07308 ± 0.00081 W/m/K
thermal conductivity (302.31 K, 5328 kPa, Liquid): 0.07627 ± 0.00084 W/m/K
thermal conductivity (302.38 K, 21010 kPa, Liquid): 0.0851 ± 0.00094 W/m/K
thermal conductivity (302.4 K, 858 kPa, Liquid): 0.07303 ± 0.00081 W/m/K
thermal conductivity (302.43 K, 15441 kPa, Liquid): 0.08206 ± 0.00091 W/m/K
thermal conductivity (302.46 K, 201 kPa, Gas): 0.01371 ± 0.00046 W/m/K
thermal conductivity (302.51 K, 101 kPa, Gas): 0.01358 ± 0.00046 W/m/K
thermal conductivity (302.51 K, 273 kPa, Gas): 0.01407 ± 0.00048 W/m/K
thermal conductivity (302.51 K, 345 kPa, Gas): 0.01391 ± 0.00047 W/m/K
thermal conductivity (302.52 K, 15424 kPa, Liquid): 0.08203 ± 0.00091 W/m/K
thermal conductivity (302.61 K, 10265 kPa, Liquid): 0.07929 ± 0.00088 W/m/K
thermal conductivity (302.67 K, 5319 kPa, Liquid): 0.07625 ± 0.00085 W/m/K
thermal conductivity (302.68 K, 15424 kPa, Liquid): 0.08166 ± 0.00091 W/m/K
thermal conductivity (302.74 K, 270 kPa, Gas): 0.01405 ± 0.00048 W/m/K
thermal conductivity (302.77 K, 10264 kPa, Liquid): 0.079 ± 0.00087 W/m/K
thermal conductivity (302.78 K, 847 kPa, Liquid): 0.07298 ± 0.00081 W/m/K
thermal conductivity (302.8 K, 868 kPa, Liquid): 0.07244 ± 0.00082 W/m/K
thermal conductivity (302.84 K, 5317 kPa, Liquid): 0.07599 ± 0.00085 W/m/K
thermal conductivity (302.84 K, 21005 kPa, Liquid): 0.08503 ± 0.00093 W/m/K
thermal conductivity (302.86 K, 345 kPa, Gas): 0.01388 ± 0.00047 W/m/K
thermal conductivity (302.91 K, 15440 kPa, Liquid): 0.08218 ± 0.0009 W/m/K
thermal conductivity (302.94 K, 321 kPa, Gas): 0.01444 ± 0.00049 W/m/K
thermal conductivity (302.99 K, 267 kPa, Gas): 0.01402 ± 0.00047 W/m/K
thermal conductivity (303 K, 21003 kPa, Liquid): 0.08496 ± 0.00093 W/m/K
thermal conductivity (303.03 K, 15420 kPa, Liquid): 0.08154 ± 0.00091 W/m/K
thermal conductivity (303.06 K, 201 kPa, Gas): 0.01387 ± 0.00047 W/m/K
thermal conductivity (303.09 K, 515 kPa, Gas): 0.01405 ± 0.00048 W/m/K
thermal conductivity (303.1 K, 443 kPa, Gas): 0.01398 ± 0.00047 W/m/K
thermal conductivity (303.15 K, Liquid): 0.07268 ± 0.00049 W/m/K
thermal conductivity (303.22 K, 15419 kPa, Liquid): 0.08081 ± 0.00089 W/m/K
thermal conductivity (303.24 K, 345 kPa, Gas): 0.01392 ± 0.00047 W/m/K
thermal conductivity (303.3 K, 101 kPa, Gas): 0.01415 ± 0.00048 W/m/K
thermal conductivity (303.42 K, 515 kPa, Gas): 0.01408 ± 0.00048 W/m/K
thermal conductivity (303.44 K, 443 kPa, Gas): 0.01405 ± 0.00048 W/m/K
thermal conductivity (303.46 K, 201 kPa, Gas): 0.01405 ± 0.00048 W/m/K
thermal conductivity (303.5 K, 21000 kPa, Liquid): 0.08483 ± 0.00093 W/m/K
thermal conductivity (303.63 K, 345 kPa, Gas): 0.01394 ± 0.00047 W/m/K
thermal conductivity (303.77 K, 515 kPa, Gas): 0.01408 ± 0.00048 W/m/K
thermal conductivity (303.8 K, 441 kPa, Gas): 0.01404 ± 0.00048 W/m/K
thermal conductivity (303.82 K, 515 kPa, Gas): 0.01409 ± 0.00048 W/m/K
thermal conductivity (303.89 K, 201 kPa, Gas): 0.01411 ± 0.00048 W/m/K
thermal conductivity (304.06 K, 345 kPa, Gas): 0.01397 ± 0.00047 W/m/K
thermal conductivity (304.14 K, 515 kPa, Gas): 0.01407 ± 0.00048 W/m/K
thermal conductivity (304.18 K, 102 kPa, Gas): 0.01422 ± 0.00048 W/m/K
thermal conductivity (304.18 K, 441 kPa, Gas): 0.01406 ± 0.00048 W/m/K
thermal conductivity (304.34 K, 201 kPa, Gas): 0.01397 ± 0.00047 W/m/K
thermal conductivity (304.53 K, 514 kPa, Gas): 0.01408 ± 0.00048 W/m/K
thermal conductivity (304.57 K, 442 kPa, Gas): 0.01401 ± 0.00047 W/m/K
thermal conductivity (304.57 K, 514 kPa, Gas): 0.0141 ± 0.00048 W/m/K
thermal conductivity (304.66 K, 101 kPa, Gas): 0.0142 ± 0.00048 W/m/K
thermal conductivity (311.41 K, 326 kPa, Gas): 0.01522 ± 0.00051 W/m/K
thermal conductivity (311.43 K, 200 kPa, Gas): 0.01495 ± 0.0005 W/m/K
thermal conductivity (311.44 K, 102 kPa, Gas): 0.01483 ± 0.0005 W/m/K
thermal conductivity (311.61 K, 325 kPa, Gas): 0.01511 ± 0.00051 W/m/K
thermal conductivity (311.65 K, 200 kPa, Gas): 0.01482 ± 0.0005 W/m/K
thermal conductivity (311.67 K, 102 kPa, Gas): 0.01465 ± 0.00049 W/m/K
thermal conductivity (311.83 K, 325 kPa, Gas): 0.01504 ± 0.00051 W/m/K
thermal conductivity (311.89 K, 200 kPa, Gas): 0.0147 ± 0.0005 W/m/K
thermal conductivity (311.91 K, 101 kPa, Gas): 0.01455 ± 0.00049 W/m/K
thermal conductivity (312.06 K, 325 kPa, Gas): 0.015 ± 0.001 W/m/K
thermal conductivity (312.14 K, 200 kPa, Gas): 0.01462 ± 0.00049 W/m/K
thermal conductivity (312.16 K, 101 kPa, Gas): 0.01449 ± 0.00049 W/m/K
